Read-outs that look alike come from different tables or passages of the source.
Legend:
α2A adrenoceptor = target: T1, α2A adrenoceptor (Homo sapiens, UniProt P08913); assay: Agonist screening mode cAMP assay, 293-α2A cells; assay type: cell-based; details: for agonistic activity on the α2A receptor / agonistic activity α1A/2A: in words, compared with dexmedetomidine hydrochloride; for Function α1A/2A: ratio of α1A to α2A EC50
T1 construct: host or cells: 293
T1 sequence (P08913 1-465): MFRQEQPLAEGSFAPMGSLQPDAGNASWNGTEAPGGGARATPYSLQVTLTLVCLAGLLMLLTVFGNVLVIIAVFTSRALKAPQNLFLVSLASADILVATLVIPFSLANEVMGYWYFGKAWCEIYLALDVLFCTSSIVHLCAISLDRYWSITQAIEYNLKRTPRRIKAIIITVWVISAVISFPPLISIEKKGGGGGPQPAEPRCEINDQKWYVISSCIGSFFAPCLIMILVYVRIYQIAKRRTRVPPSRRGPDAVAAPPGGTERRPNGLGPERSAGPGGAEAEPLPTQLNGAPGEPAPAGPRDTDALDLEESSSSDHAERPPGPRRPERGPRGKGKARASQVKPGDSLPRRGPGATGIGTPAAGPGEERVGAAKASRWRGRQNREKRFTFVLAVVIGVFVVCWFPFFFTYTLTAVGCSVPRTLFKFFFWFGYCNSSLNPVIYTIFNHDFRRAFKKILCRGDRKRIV
Procedure: The cells were centrifuged at 1000 rpm for 5 min, and the supernatant was discarded. 3 mL of PBS was added, and the mixture was gently pipetted to be mixed well. The cells were centrifuged again at 1000 rpm for 5 min, and the supernatant was discarded. The cells were resuspended in the 1× Stimulation buffer and counted using a Countstar cell counter, and the cell density was adjusted to 4 × 10^5 cells/mL for later use. • (4) Cell addition: The cell suspension was added to assay plates at 5 µL/well (i.e., about 2000 cells/well). • (5) Compound addition: The compound diluted with the Stimulation buffer was added to the assay plates described above at 4 µL/well. • (6) Reaction and incubation: After gentle shaking, the assay plates were incubated at 37 °C for 20 min. • (7) Agonist Forskolin addition: A 10× adenylate cyclase agonist (Forskolin with a final concentration of 1 µM) solution was added at 1 µL/well. • (8) Reaction and incubation: After gentle shaking, the assay plates were incubated at 37 °C for 45 min. • (9) Detection reagent addition: cAMP-cryptate and Anti-cAMP-d2 were separately diluted according to a ratio of 1:20 with Lysis & detection buffer in the Cisbio cAMP-Gi detection kit, and the diluted cAMP-cryptate and Anti-cAMP-d2 described above were separately added to the assay plate at 5 µL/well. After shaking, the assay plates were left to stand at room temperature for 60 min. • (10) Experimental readings: The plate was read on Envision, readings from the 665 nm and 615 nm channels were taken, and the ratio of 665 nm/615 nm readings was calculated.

α2A receptor = target: T2, α2A receptor (Homo sapiens, UniProt P08913); assay: Competitive receptor binding assay, α2A (3H-RX821002, CHO-K1-α2A membranes); details: for affinity for the α2A receptor / affinity α1A/2A: in words, compared with dexmedetomidine hydrochloride
T2 construct: expressed in transfected cells; host or cells: CHO-K1
T2 sequence (P08913 1-465): T1 sequence (P08913 1-465)
Procedure: Standard buffer (used for preparing α1A, α2A, α2B, and α2C receptor membranes): 146 mg of EDTA was weighed out, a 50 mM Tris-HCl buffer was added to reach a total volume of 1000 mL, and the pH was adjusted to 7.7 to make a final concentration of 0.5 mM for EDTA.
Test sample (compound): The theoretical sample weighing amount was calculated according to the designed concentration and the required volume. Generally, the test sample was dissolved in DMSO to an initial preparation dose of 5.0 × 10^-3 M, and the solution was sequentially diluted with DMSO to 5.0 × 10^-4 M-5.0 × 10^-9 M; the diluted DMSO solution was diluted with Buffer to a working concentration of 5.0 × 10^-5 M-5.0 × 10^-11 M; and the final concentration of DMSO in the working solution was 1% (the final concentration of DMSO in the reaction system was 0.2%). The test sample was prepared and then stored at 4 °C. After the test was completed, the test sample was discarded.
CHO-K1-α1A, CHO-K1-α2A, CHO-K1-α2B, and CHO-K1-α2C cells were taken out of a refrigerator at -80 °C, thawed naturally, and centrifuged at 2000 g at 4 °C for 10 min. The supernatant was discarded, and the pellet was collected. A buffer was added to the pellet, and the mixture was homogenized for 20-30 s and then centrifuged at 48000 g at 4 °C for 25 min. The supernatant was discarded, and the buffer was added again. The mixture was homogenized for 20-30 s and centrifuged at 48000 g at 4 °C for 25 min. The supernatant was discarded, and the pellet was collected and stored at -80 °C.
Table 1. Experimental conditions for radioactive binding
Step 1: 50 µL of a vehicle (1% DMSO) was added to a total binding tube (TB), 50 µL of a non-labeled substance (with a final concentration of 1.0 × 10^-5 M) was added to a non-specific binding tube (NB), and 50 µL of a test compound was added to each test compound tube (CB).
Step 2: 100 µL of a buffer was added to each reaction tube.
Step 3: The prepared membrane was suspended in a buffer to give a membrane suspension with a corresponding concentration for later use.
Step 4: 50 µL of the corresponding radioligand was added to each reaction tube.
Step 5: 50 µL of the membrane suspension was added to each reaction tube.
Step 6: Each reaction tube was incubated according to the incubation conditions. After the reaction was completed, the binding ligands were rapidly filtered under reduced pressure. The UniFilter GF/C plate was saturated with a 0.5% PEI solution 1 h in advance, fully washed with an ice-cold Tris-HCl buffer, filtered under vacuum, then placed into a thermostatic dryer, and dried for 30 min. The filter plate was taken out, and a MICROSCINT PS scintillation solution was added at 40 µL/well.
Step 7: The scintillation vial was put into a liquid scintillation counter for counting.
Based on the effect values of the compound samples at different concentration test points, the GraphPad Prism software was used to fit the action curves of the compound samples to the receptors, and the Ki values were calculated.

[1] = EC50, cAMP-Gi, 293-α2A cells, Forskolin 1 µM, read-out: Function α2A
[2] = Ki, CHO-K1-α2A membranes, 3H-RX821002, read-out: Binding α2A

c1cc2c(c(Cc3c[nH]cn3)c1)SCCC2 [Compound 1, 4-[1-(Thiochroman-8-yl)methyl]-1H-imidazole]
EC50 (α2A adrenoceptor; [1]): 1.28 nM | agonistic activity on the α2A receptor (α2A adrenoceptor): comparable | Function α1A/2A (α2A adrenoceptor): 2.5 | Ki (α2A receptor; [2]): 15.6 nM | affinity for the α2A receptor (α2A receptor): comparable

CC(c1c[nH]cn1)c1cccc2c1SCCC2 (centres unmarked) [Compound 2, 4-(1-[Thiochroman-8-yl)ethyl]-1H-imidazole]
EC50 (α2A adrenoceptor; [1]): 0.53 nM | agonistic activity on the α2A receptor (α2A adrenoceptor): superior | agonistic activity α1A/2A (α2A adrenoceptor): comparable | Function α1A/2A (α2A adrenoceptor): 10.1 | Ki (α2A receptor; [2]): 7.72 nM | affinity for the α2A receptor (α2A receptor): superior

CC(c1c[nH]cn1)c1cccc2c1CC2 (centres unmarked) [Compound 3, 4-(1-(Bicyclo[4.2.0]octa-1(6),2,4-trien-2-yl)ethyl)-1H-imidazole]
EC50 (α2A adrenoceptor): 3.12 nM | agonistic activity on the α2A receptor (α2A adrenoceptor): comparable | agonistic activity α1A/2A (α2A adrenoceptor): superior | Function α1A/2A (α2A adrenoceptor): 18.3 | Ki (α2A receptor): 29.1 nM | affinity for the α2A receptor (α2A receptor): comparable | affinity α1A/2A (α2A receptor): comparable

CC(c1c[nH]cn1)c1cccc2c1CCCC2 (centres unmarked) [Compound 4, 4-(1-(5,6,7,8-Tetrahydronaphthalen-1-yl)ethyl)-1H-imidazole]
EC50 (α2A adrenoceptor): 3.57 nM | agonistic activity on the α2A receptor (α2A adrenoceptor): comparable | agonistic activity α1A/2A (α2A adrenoceptor): comparable | Function α1A/2A (α2A adrenoceptor): 7.0 | Ki (α2A receptor): 28.7 nM | affinity for the α2A receptor (α2A receptor): comparable | affinity α1A/2A (α2A receptor): superior

CC(c1c[nH]cn1)c1cccc2c1C=CC2 (centres unmarked) [Compound 8, 4-[1-(1H-Inden-4-yl)ethyl]-1H-imidazole]
EC50 (α2A adrenoceptor): 0.91 nM | agonistic activity on the α2A receptor (α2A adrenoceptor): superior | agonistic activity α1A/2A (α2A adrenoceptor): superior | Function α1A/2A (α2A adrenoceptor): 23.9 | Ki (α2A receptor): 10.8 nM | affinity for the α2A receptor (α2A receptor): comparable | affinity α1A/2A (α2A receptor): superior

CC(c1c[nH]cn1)c1cccc2c1OCC2 (centres unmarked) [Compound 10, 4-[1-(2,3-Dihydrobenzofuran-7-yl)ethyl]-1H-imidazole]
EC50 (α2A adrenoceptor): 4.63 nM | agonistic activity on the α2A receptor (α2A adrenoceptor): comparable | agonistic activity α1A/2A (α2A adrenoceptor): comparable | Function α1A/2A (α2A adrenoceptor): 5.2 | Ki (α2A receptor): 2.4 nM | affinity for the α2A receptor (α2A receptor): superior | affinity α1A/2A (α2A receptor): superior

C[C@H](c1c[nH]cn1)c1cc(F)cc2c1C=CC2 [Compound 11-b, 4-[(1S)-1-(6-fluoro-1H-inden-4-yl)ethyl]-1H-imidazole]
EC50 (α2A adrenoceptor): 9.18 nM | agonistic activity on the α2A receptor (α2A adrenoceptor): comparable | agonistic activity α1A/2A (α2A adrenoceptor): comparable | Function α1A/2A (α2A adrenoceptor): 4.0 | Ki (α2A receptor): 211 nM

CC(c1c[nH]cn1)c1cccc2c1C=CC2(C)C (centres unmarked) [Compound 17, 4-[1-(1,1-Dimethyl-1H-inden-4-yl)ethyl]-1H-imidazole]
EC50 (α2A adrenoceptor): 32 nM | agonistic activity α1A/2A (α2A adrenoceptor): comparable | Function α1A/2A (α2A adrenoceptor): 3.2 | Ki (α2A receptor): 143 nM

C[C@H](c1c[nH]cn1)c1cccc2c1CCC2 [Compound 31-b, (S)-4-[1-(2,3-dihydro-1H-inden-4-yl)ethyl]-1H-imidazole]
EC50 (α2A adrenoceptor): 4.46 nM | agonistic activity on the α2A receptor (α2A adrenoceptor): comparable | agonistic activity α1A/2A (α2A adrenoceptor): comparable | Function α1A/2A (α2A adrenoceptor): 1.8 | Ki (α2A receptor): 23.5 nM

CC1Cc2cccc(C(C)c3c[nH]cn3)c2O1 (centres unmarked) [Compound 32, 4-[1-(2-Methyl-2,3-dihydrobenzofuran-7-yl)ethyl]-1H-imidazole]
EC50 (α2A adrenoceptor): 353 nM | Function α1A/2A (α2A adrenoceptor): 0.0 | Ki (α2A receptor): 4.94 nM

C[C@H](c1c[nH]cn1)c1cc(F)cc2c1C(=O)CC2 [Compound 38-b, (S)-7-(1-(1H-imidazol-4-yl)ethyl)-5-fluoro-2,3-dihydro-1H-inden-1-one]
EC50 (α2A adrenoceptor; [1]): 13.2 nM | Function α1A/2A (α2A adrenoceptor): 0.7 | Ki (α2A receptor; [2]): 701 nM

Source: EP4729516A1, “S[…] DERIVATIVE, INTERMEDIATE, PREPARATION METHOD THEREFOR AND USE THEREOF” (Jiangsu NHWA Pharmaceutical Co., Ltd, priority 2023, dated 2024)
